Assay results reported in patent publication EP0922770B1, “A microbiological process for the transformation of 17beta-carboxy substituted 3-oxo-4-azasteroids and the use of such products as inhibitors of the enzyme 5alpha-reductase” (POLI INDUSTRIA CHIMICA S.p.A., priority 1994, dated 1996).

Biological target: enzyme 5α-reductase
Experiment: enzymatic in vitro method described in WO/9413691 (5α-reductase inhibition)
Type: biochemical
Conditions: for IC50: concentration inhibiting by 50% the enzymatic activity, Finasteride as control product; for inhibiting activity on the enzyme 5α-reductase: verbal assessment, compared with Finasteride
From the text: The three monohydroxylated products obtained by biotransformation of the azasteroid moiety using Penicillium sp. have biological activity on the enzyme 5α-reductase. For this purpose, the enzymatic in vitro method described in WO/9413691, published on June 23, 1994 has been used.

| Structure (SMILES) | IC50 | inhibiting activity on the enzyme 5α-reductase |
| --- | --- | --- |
| CC(C)(C)NC(=O)[C@H]1CC[C@H]2[C@@H]3CC[C@H]4NC(=O)C=C[C@]4(C)[C@H]3CC[C@]12C [Finasteride, reference compound] | 37 nM |  |
| CC(C)(C)NC(=O)[C@H]1CC[C@H]2[C@@H]3C[C@H](O)C4NC(=O)CC[C@]4(C)[C@H]3CC[C@]12C (stereo partly drawn) [Product 1, 17β-t-butylcarbamoyl-6a-hydroxy-4-azaandrostan-3-one] | 195 nM | poorly active |
| CC(C)(C)NC(=O)[C@H]1C[C@H](O)[C@H]2[C@@H]3CCC4NC(=O)CC[C@]4(C)[C@H]3CC[C@@]21C (stereo partly drawn) [Product 2, 17β-t-butylcarbamoyl-15a-hydroxy-4-azaandrostan-3-one] | 35 nM | strong inhibiting activity |
| CC(C)(C)NC(=O)[C@H]1C[C@@H](O)[C@H]2[C@@H]3CCC4NC(=O)CC[C@]4(C)[C@H]3CC[C@@]21C (stereo partly drawn) [Product 3, 17β-t-butylcarbamoyl-15β-hydroxy-4-azaandrostan-3-one] | 35 nM | strong inhibiting activity |
